Consider two sequences from publication PMC8352664 (The Journal of Biological Chemistry, 2021).

Holding throughout (format): binding, human
In one test the target is TRAV12-2 TCR NR2F. The settings on record: pH 7.5.
The target in another test is TRAV12-1 TCR NR1C. The settings on record: pH 7.5.
The target in the next test is TRAV12-1 TCR NR1D. Particulars: pH 7.5.
The target of a further test is TRAV12-1 TCR NR1A. Particulars: pH 7.5.
Another test relates to TRAV12^+ TCRs.

As to TLDPRSFLL [PAR1], the “KD, NR2F” value on TRAV12-2 TCR NR2F is given as “N.B”. For the same sequence, the “KD, NR1C” value on TRAV12-1 TCR NR1C is reported as “N.B”.
For YLQPSTFLL [S^269–277R273S], on TRAV12-1 TCR NR1D, the “KD, NR1D” value is “N.B”. Further, the “KD, NR2F” value on TRAV12-2 TCR NR2F is “N.B”. Moreover, the “KD, NR1A” value on TRAV12-1 TCR NR1A is given as “N.B”. The “TCR binding to HLA-A2 presenting the changed epitope” value in the test with TRAV12^+ TCRs is on record as “completely abrogated TCR binding”. For the same sequence, at TRAV12-1 TCR NR1C, the “KD, NR1C” value is on record as “N.B”.
